Laboratory results as given in the NIST ThermoML archive (doi:10.1016/j.jct.2005.08.002).

Test: xn = mol fraction of the nth substance listed
Conditions: 101 kPa, Liquid; for viscosity: Capillary tube (Ostwald / Ubbelohde) method; for speed of sound: Sing-around technique in a fixed-path interferometer; for mass density: Vibrating tube method

CC1CCCC1 [methylcyclopentane] + CC(C)=O
Conditions	mass density, 293.15 K [kg/m3]	mass density, 298.15 K [kg/m3]	mass density, 303.15 K [kg/m3]	speed of sound, 293.15 K [m/s]	speed of sound, 298.15 K [m/s]	speed of sound, 303.15 K [m/s]	viscosity, 293.15 K [mPa·s]	viscosity, 298.15 K [mPa·s]	viscosity, 303.15 K [mPa·s]
x1 = 0.05	785.97	780.3	774.59	1177	1155	1132	0.323	0.308	0.294
x1 = 0.0985	781.33	775.71	770.04	1171	1148	1126	0.323	0.308	0.294
x1 = 0.2004	773.02	767.49	761.9	1162	1139	1116	0.333	0.317	0.302
x1 = 0.3009	766.13	760.68	755.18	1157	1134	1111	0.347	0.33	0.316
x1 = 0.4024	760.79	755.43	750.02	1156	1133	1110	0.361	0.344	0.328
x1 = 0.5029	756.32	751.06	745.74	1157	1134	1111	0.378	0.359	0.341
x1 = 0.6052	752.71	747.55	742.34	1161	1137	1114	0.396	0.375	0.355
x1 = 0.7112	749.82	744.77	739.67	1166	1143	1120	0.418	0.395	0.374
x1 = 0.8139	747.82	742.89	737.92	1174	1151	1127	0.438	0.415	0.393
x1 = 0.9084	746.75	741.94	737.09	1184	1161	1137	0.467	0.442	0.418
x1 = 0.954	746.58	741.83	737.04	1190	1167	1143	0.482	0.457	0.432
x1 = 1	746.64	741.94	737.21	1197	1174	1150	0.504	0.476	0.45

CC1CCCC1 [methylcyclopentane] + CCC(C)=O
Conditions	mass density, 293.15 K [kg/m3]	mass density, 298.15 K [kg/m3]	mass density, 303.15 K [kg/m3]	speed of sound, 293.15 K [m/s]	speed of sound, 298.15 K [m/s]	speed of sound, 303.15 K [m/s]	viscosity, 293.15 K [mPa·s]	viscosity, 298.15 K [mPa·s]	viscosity, 303.15 K [mPa·s]
x1 = 0.048	800.42	795.21	789.96	1208	1187	1165	0.397	0.378	0.36
x1 = 0.0982	795.99	790.8	785.57	1203	1181	1160	0.396	0.376	0.358
x1 = 0.1942	787.99	782.84	777.64	1195	1173	1151	0.397	0.377	0.358
x1 = 0.2911	780.72	775.6	770.44	1188	1166	1144	0.402	0.383	0.364
x1 = 0.398	773.4	768.32	763.2	1183	1161	1139	0.408	0.386	0.367
x1 = 0.5036	766.98	761.95	756.87	1181	1158	1136	0.416	0.394	0.374
x1 = 0.6033	761.6	756.62	751.6	1180	1157	1135	0.427	0.404	0.383
x1 = 0.6993	757.02	752.08	747.11	1181	1158	1135	0.439	0.415	0.394
x1 = 0.8045	752.53	747.68	742.78	1184	1161	1138	0.455	0.431	0.409
x1 = 0.906	749.02	744.24	739.42	1189	1166	1143	0.475	0.448	0.425
x1 = 0.9517	747.8	743.03	738.24	1193	1169	1146	0.487	0.46	0.436
x1 = 1	746.64	741.94	737.21	1197	1174	1150	0.504	0.476	0.45

CC1CCCC1 [methylcyclopentane] + CCCC(C)=O
Conditions	mass density, 293.15 K [kg/m3]	mass density, 298.15 K [kg/m3]	mass density, 303.15 K [kg/m3]	speed of sound, 293.15 K [m/s]	speed of sound, 298.15 K [m/s]	speed of sound, 303.15 K [m/s]	viscosity, 293.15 K [mPa·s]	viscosity, 298.15 K [mPa·s]	viscosity, 303.15 K [mPa·s]
x1 = 0.0493	802.59	797.76	792.9	1228	1207	1187	0.49	0.462	0.439
x1 = 0.0981	798.89	794.06	789.19	1224	1203	1182	0.485	0.459	0.434
x1 = 0.1993	791.61	786.76	781.89	1216	1194	1173	0.479	0.452	0.43
x1 = 0.3038	784.4	779.56	774.7	1207	1185	1164	0.473	0.449	0.425
x1 = 0.3972	778.23	773.38	768.51	1201	1179	1157	0.47	0.444	0.421
x1 = 0.5007	771.75	766.91	762.04	1196	1174	1152	0.469	0.444	0.42
x1 = 0.6069	765.58	760.74	755.87	1193	1171	1148	0.468	0.442	0.419
x1 = 0.6989	760.33	755.52	750.68	1191	1168	1146	0.47	0.444	0.422
x1 = 0.8052	754.83	750.05	745.24	1190	1168	1145	0.477	0.451	0.427
x1 = 0.9039	750.38	745.64	740.86	1193	1170	1147	0.487	0.458	0.433
x1 = 0.9508	748.6	743.88	739.12	1195	1172	1148	0.493	0.466	0.44
x1 = 1	746.64	741.94	737.21	1197	1174	1150	0.504	0.476	0.45
